# Source: patent US7160916B2, “Method of increasing bone density or treating osteoporosis” (Yung Shin Pharmaceutical Ind. Co., Ltd., priority 2003, dated 2007)
# Columns and labels:
# Male SD rats = assay: Local injection into proximal tibia, bone histomorphometry (bone growth); type: in vivo, rat
# Description: Assay of bone resorption of osteoclast: Osteoclast precursors were isolated from rat long bones as mentioned above. The cells were re-suspended in a complete DMEM medium and plated into a calcium phosphate apatite-coated 24-well plate, OAAS (Oscotec, OCT USA Inc.) at 1×10^6 cells/0.5 ml/well. The cells were cultured for 5 days in the presence of M-CSF (20 ng/ml) plus sRANKL (50 ng/ml). Indazole 1 was injected daily for additional 3 days in the absence of M-CSF and sRANKL. Culture was terminated on day 8 and the remaining cells in the plate were lysed using 1 N NaOH. Five images per well were obtained using an inverted microscope (200×), and resorbed area was measured using an image analyzer. Local injection Male SD rats weighing 70–88 gm were used. Implantation of a cannula (22G) was done from the posteriolateral side into the proximal tibial metaphysis in both limbs of rats anesthetized with pentobarbital. The cannula had its outer end in the subcutaneous tissue. Indazole 1 was percutaneously injected through the cannula into the proximal tibia once/day for 1 week. The same concentration of DMSO diluted with normal saline was injected into the right side for comparison. On day 14, the rats were sacrificed and tibiae were fixed in 10% formaldehyde for 48 h at 4° C. Bone histomorphometry: After formalin fixation of tibia was completed, the tibiae were then decalcified in 0.5 N hydrochloric acid, dehydrated in an ascending series of ethanol solution and acetone, and embedded in paraffin. Serial sections (5 μm) were cut longitudinally and stained with Mayer's hematoxylin-eosin solution (Yang et al. (1993) Calcif Tissue Int 52:57–61). Images of the growth plate and proximal tibia were photographed using a photoMicroGraphic Digitize integrate System (MGDS; Total-Integra Technology Co., Ltd., Taipei, Taiwan). Bone volume measurements were performed on the whole secondary spongiosa, which is located under the primary spongiosa and characterized by a network of larger trabeculae. Bone volumes were calculated using an image analysis software. All measurements were done in a single-blind fashion. Bone growth: Male young rats (SD) weighing 70–90 gm were divided into six groups. The average weight of the rats in each group was 73.9±1.1 gm. Indazole 1 was dissolved in DMSO and diluted with saline to a final concentration of 10 μM. One of the six groups was a control group, and the other groups were punctuated with a needle cannula alone, injected with a vehicle using a needle cannula (day 1, once), injected with Indazole 1 (day 1, once), injected with a vehicle using a needle cannula (days 1–7, daily), and injected with Indazole 1 (days 1–7, daily), respectively. […] Trabecular bone in the secondary spongiosa increased by 90% after local injection of Indazole 1 for 7 days.
# adult male rats = assay: Bone loss induced by the cut of sciatic nerve; type: in vivo, rat; parameters: Tibia BMD / Tibia BMC / Femur BMD / Femur BMC: unit not given here; settings: for Bone volume / Femur BMC / Femur BMD / Femur length / Femur weight / Tibia BMC / Tibia BMD / Tibia length / Tibia weight: i.p. 1 mg/kg daily for 1 month, mean ± S.E., n=10
# Excerpt: Bone histomorphometry: After formalin fixation of tibia was completed, the tibiae were then decalcified in 0.5 N hydrochloric acid, dehydrated in an ascending series of ethanol solution and acetone, and embedded in paraffin. Serial sections (5 μm) were cut longitudinally and stained with Mayer's hematoxylin-eosin solution (Yang et al. (1993) Calcif Tissue Int 52:57–61). Images of the growth plate and proximal tibia were photographed using a photoMicroGraphic Digitize integrate System (MGDS; Total-Integra Technology Co., Ltd., Taipei, Taiwan). Bone volume measurements were performed on the whole secondary spongiosa, which is located under the primary spongiosa and characterized by a network of larger trabeculae. Bone volumes were calculated using an image analysis software. All measurements were done in a single-blind fashion. Ovariectomy and cut of sciatic nerve: Ovariectomy and cut of sciatic nerve were performed in adult female and male rats (3 month-old), respectively. After surgery, the rats were injected with Indazole 1 (i.p., 1 mg/Kg) or a vehicle daily for 4 weeks. On the day following the last injection, the rats were sacrificed and their tibia and femur were removed. Tibia and femur Preparation: At the end of the program, the rats were sacrificed by decapitation. The tibiae were removed, cleaned of soft tissue, and the length of the tibia was measured with a precision caliper (±0.05 mm) as described by Weinreb et al. (1991) J Bone Miner Res 6:725–731. The tibiae were fixed in 10% formaldehyde for 48 h at 4° C. for bone histomorphometry analysis. Some of the tibia and femur were also removed and kept at −20° C. for bone mineral analysis. Analysis of bone mineral density (BMD) and content (BMC): BMD and BMC of the tibia and femur were measured with a dual-energy X-ray absorptiometer (DEXA, XR-26; Norland, Fort Atkinson, Wis.). The mode adapted to the measurements of small subjects was adopted. A coefficient of variation of 0.7% was calculated from daily measurements of BMD on a lumbar phantom for more than 1 year (Yang et al. (1998) Calcif Tissue Int 63:86–90). The tibia and femur were thawed to room temperature before bone mineral analysis. The whole tibiae and femur were scanned and BMD and BMC were measured by absorptiometer.
structure (smiles),measurement,setting,value
"OCc1ccc(-c2nn(Cc3ccccc3)c3ccccc23)o1 [Indazole 1, 1-benzyl-3-(5′-hydroxymethyl-2′-furyl)-indazole]",effect on tibia length,Male SD rats; local injection,not significantly affected
same,Trabecular bone in the secondary spongiosa increased by,Male SD rats; local injection for 7 days,90%
same,bone volume of the secondary spongiosa,"Male SD rats; local injection into proximal tibia, 0.1 nmole, daily for 7 days, then 7 further days, young male rats",significantly increased
same,Tibia length,"Male SD rats; local injection, n=9",3.32±0.02 cm
same,bone loss induced by nerve section,adult male rats; 1 mg/kg daily for 4 weeks immediately after the cut of sciatic nerve,antagonized the bone loss
same,Bone volume,adult male rats; Contralateral side,11.9 ± 0.98%
same,Femur BMC,adult male rats; Contralateral side,0.419 ± 0.016
same,Femur BMD,adult male rats; Contralateral side,0.132 ± 0.003
same,Femur length,adult male rats; Contralateral side,3.95 ± 0.02 cm
same,Femur weight,adult male rats; Contralateral side,1.16 ± 0.03 g
same,Tibia BMC,adult male rats; Contralateral side,0.282 ± 0.013
same,Tibia BMD,adult male rats; Contralateral side,0.106 ± 0.002
same,Tibia length,adult male rats; Contralateral side,4.36 ± 0.01 cm
same,Tibia weight,adult male rats; Contralateral side,0.92 ± 0.03 g
same,Bone volume,adult male rats; Surgery side,9.43 ± 0.8%
same,Femur BMC,adult male rats; Surgery side,0.394 ± 0.015
same,Femur BMD,adult male rats; Surgery side,0.129 ± 0.003
same,Femur length,adult male rats; Surgery side,3.96 ± 0.01 cm
same,Femur weight,adult male rats; Surgery side,1.17 ± 0.03 g
same,Tibia BMC,adult male rats; Surgery side,0.298 ± 0.014
same,Tibia BMD,adult male rats; Surgery side,0.106 ± 0.002
same,Tibia length,adult male rats; Surgery side,4.35 ± 0.01 cm
same,Tibia weight,adult male rats; Surgery side,0.91 ± 0.03 g
